Values of other authors in paper PMC10757118, “HS‐10352 in hormone receptor‐positive, HER2‐negative advanced breast cancer: A phase 1 dose‐escalation trial” (Cancer Medicine, 2023).

Experiments:
[1] = tested on: PIK3CA‐mutant, HR‐positive, HER2‐negative breast cancer; set-up: method as in ref 33 = [33]; 33 Juric D , Kalinsky K , Oliveira M , et al. Abstract OT1‐08‐04: a first‐in‐human phase Ia dose escalation study of GDC‐0077, a p110a‐selective and mutant‐degrading PI3K inhibitor, in patients with P; conditions: single agent, HER2‐negative breast cancer patients ref 33
[2] = tested on: HR‐positive, HER2‐negative breast cancer with altered AKT pathways; set-up: method as in ref 35 = [35]; 35 Turner N , Oliveira M , Howell SJ , et al. Abstract GS3‐04: GS3‐04 Capivasertib and fulvestrant for patients with aromatase inhibitor‐resistant hormone receptor‐positive/human epidermal growth fact; conditions: CAPItello‐291, altered AKT pathways ref 35
[3] = tested on: PIK3CA‐mutant breast cancer; set-up: method as in PMID 29066505; conditions: PIK3CA‐mutant breast cancer patients ref 31
[4] = tested on: ER‐positive, HER2‐negative breast cancer; set-up: method as in PMID 29401002; conditions: monotherapy, HER2‐negative breast cancer patients ref 19

## C[C@H](Nc1ccc2c(c1)OCCn1cc(N3C(=O)OC[C@H]3C(F)F)nc1-2)C(N)=O [GDC‐0077]
[1]
  confirmed ORR: 20%

## C[C@]12CC[C@@H]3c4ccc(O)cc4C[C@@H](CCCCCCCCC[S+]([O-])CCCC(F)(F)C(F)(F)F)[C@H]3[C@@H]1CC[C@@H]2O (some centres unmarked) [fulvestrant without capivasertib]
[2]
  ORR: 9.7%
  median PFS: 3.1 months

## NC1(C(=O)N[C@@H](CCO)c2ccc(Cl)cc2)CCN(c2ncnc3[nH]ccc23)CC1 [Capivasertib]
[3]
  ORR: 4%

## Cc1nc(NC(=O)N2CCC[C@H]2C(N)=O)sc1-c1ccnc(C(C)(C)C(F)(F)F)c1 [alpelisib]
[4]
  ORR: 4.3%
